These results are taken from patent US11236087B2, “Highly active pyrazolo-piperidine substituted indole-2-carboxamides active against the hepatitis B virus (HBV)” (AiCuris GmbH & Co. KG, priority 2017, dated 2022).

Each structure is given as a SMILES string.

A short description of series [1]: Cell viability assay (AlamarBlue) in HepAD38 cells. As to conditions: human. (Resazurin is reduced to fluorescent resorufin, in cell work by metabolically active cells.)
The test system of a further series is HBV. In words: Determination of HBV DNA from the supernatants of HepAD38 cells (anti-HBV activity). Format: cell-based, hepatitis B virus. The conditions noted are these: Hepatitis B virus, 144 h; HBV DNA in HepAD38 supernatant, day 6, qPCR; read-out: Cell Activity (EC50). The gist of the method: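 Supernatant viral DNA was measured by LightCycler qPCR, calibrated with pCH-9/3091 plasmid, 6 days after tetracycline-free HepAD38 cultures received half-log serial compound dilutions; untreated and tetracycline-treated cells served as controls; EC50 was fitted by non-linear regression.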

A further series concerns the target T1, HBV core protein (UniProt P03146).
T1 construct: fused on or other part: BODIPY-FL maleimide label on the C-terminal Cys150
As to the kind of experiment: Biochemical capsid assembly assay (fluorescence quenching). As to conditions: read-out: Assembly Activity (IC50); BODIPY-FL labelled core protein, 300 μM NaCl, read 6 min after start. Further details: species or system hepatitis B virus. The gist of the method:
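Assembly-induced fluorescence quenching (477/525 nm) was measured 6 min after NaCl addition ([…]), against 2.5 M and 0 M NaCl controls. The labelled C150 core dimer (truncated at 149) at 1.0-2.0 μM in HEPES pH 7.5 was tested with eight half-log compound dilutions, top 100, 31.6 or 10 μM. EC50 was obtained by non-linear fit from triplicates run three times.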

T1 sequence (P03146 whole entry, looked up, the tested form may be a part): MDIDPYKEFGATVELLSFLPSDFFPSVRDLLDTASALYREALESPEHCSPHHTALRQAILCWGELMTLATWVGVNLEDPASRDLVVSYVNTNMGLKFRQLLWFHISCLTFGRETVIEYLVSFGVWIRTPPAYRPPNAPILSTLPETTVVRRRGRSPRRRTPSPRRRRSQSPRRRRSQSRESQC

As usually defined, the CC50 is the concentration at which the toxic effect on the cells reaches its halfway point. A lower CC50 goes with harm at low concentration. By EC50 is commonly meant the concentration needed to bring the measured effect to its halfway point. What is called IC50 is the concentration that gives 50% inhibition. `CN(C(=O)c1n[nH]c2c1CN(C(=O)c1cc3ccccc3[nH]1)CC2)C1CC1` [Example 232, N-cyclopropyl-5-(1H-indole-2-carbonyl)-N-methyl-1H,4H,5H,6H,7H-pyrazolo[4,3-c]pyridine-3-carboxamide]: in series [1], the CC50 at 6 days is > 10 µM. In addition, the EC50 in the series with HBV was < 1 µM. Moreover, at HBV core protein, the half-inhibitory concentration (IC50) is < 5 µM.

With `CN(C(=O)c1n[nH]c2c1CN(C(=O)c1cc3ccccc3[nH]1)CC2)C1(CCC(=O)O)CC1` [Example 245, 3-{1-[N-methyl 5-(1H-indole-2-carbonyl)-1H,4H,5H,6H,7H-pyrazolo[4,3-c]pyridine-3-amido]cyclopropyl}propanoic acid], in series [1], the CC50 at 6 days was > 10 µM. Besides, in the series on HBV, the EC50 is < 100 µM. For the same compound, on HBV core protein, the IC50 lay within 5 to 10 µM.

`CCOC(=O)CCC1(N(C)C(=O)c2n[nH]c3c2CN(C(=O)c2cc4ccccc4[nH]2)CC3)CC1` [Example 246, ethyl 3-{1-[N-methyl 5-(1H-indole-2-carbonyl)-1H,4H,5H,6H,7H-pyrazolo[4,3-c]pyridine-3-amido]cyclopropyl}propanoate]: the CC50 at 6 days in series [1] is > 10 µM. In the series with HBV, the concentration giving a half-maximal response (EC50) was < 100 µM. On HBV core protein, the IC50 is < 100 µM.

Regarding `CN(CCC(=O)NS(=O)(=O)C1CC1)C(=O)c1[nH]nc2c1CN(C(=O)c1cc3ccccc3[nH]1)CC2` [Example 247, N-(cyclopropanesulfonyl)-3-{1-[5-(1H-indole-2-carbonyl)-2H,4H,5H,6H,7H-pyrazolo[4,3-c]pyridin-3-yl]-N-methylformamido}propanamide], the 50% cytotoxic concentration (CC50) at 6 days in series [1] is > 10 µM. Moreover, the concentration giving a half-maximal response (EC50) with HBV was < 100 µM. Besides, the IC50 on HBV core protein was < 100 µM.

As for `COCCC1(N(C)C(=O)c2[nH]nc3c2CN(C(=O)c2cc4ccccc4[nH]2)CC3)CC1` [Example 248, 5-(1H-indole-2-carbonyl)-N-[1-(2-methoxyethyl)cyclopropyl]-N-methyl-2H,4H,5H,6H,7H-pyrazolo[4,3-c]pyridine-3-carboxamide], the cytotoxic concentration (CC50) at 6 days in series [1] is > 10 µM. Further, the concentration giving a half-maximal response (EC50) in the series with HBV was < 1 µM. Further, the IC50 on HBV core protein is < 5 µM.

As to `CN(C(=O)c1[nH]nc2c1CN(C(=O)c1cc3ccccc3[nH]1)CC2)C1(CO)COC1` [Example 249, N-[3-(hydroxymethyl)oxetan-3-yl]-5-(1H-indole-2-carbonyl)-N-methyl-2H,4H,5H,6H,7H-pyrazolo[4,3-c]pyridine-3-carboxamide], the CC50 at 6 days in series [1] was > 10 µM. Besides, the half-maximal effective concentration (EC50) in the series with HBV is < 1 µM. Besides, the IC50 on HBV core protein is < 5 µM.

Turning to `CN(C(=O)c1[nH]nc2c1CN(C(=O)c1cc3ccccc3[nH]1)CC2)C1(C)COC1` [Example 251, 5-(1H-indole-2-carbonyl)-N-methyl-N-(3-methyloxetan-3-yl)-2H,4H,5H,6H,7H-pyrazolo[4,3-c]pyridine-3-carboxamide], in series [1], the CC50 at 6 days was > 10 µM. Further, in the series with HBV, the EC50 was < 1 µM. Also, at HBV core protein, the concentration for half-maximal inhibition (IC50) was < 5 µM.

With `CN(C(=O)c1[nH]nc2c1CN(C(=O)c1cc3ccccc3[nH]1)CC2)[C@H]1CCC[C@@H]1O` [Example 252, N-[(1S,2S)-2-hydroxycyclopentyl]-5-(1H-indole-2-carbonyl)-N-methyl-2H,4H,5H,6H,7H-pyrazolo[4,3-c]pyridine-3-carboxamide], the CC50 at 6 days in series [1] is > 10 µM. Moreover, the half-maximal effective concentration (EC50) in the series with HBV is < 1 µM. Also, the IC50 on HBV core protein was < 5 µM.

As for `CN(CC1(O)CCC1)C(=O)c1n[nH]c2c1CN(C(=O)c1cc3ccccc3[nH]1)CC2` [Example 254, N-[(1-hydroxycyclobutyl)methyl]-5-(1H-indole-2-carbonyl)-N-methyl-1H,4H,5H,6H,7H-pyrazolo[4,3-c]pyridine-3-carboxamide], the CC50 at 6 days in series [1] is > 10 µM. The concentration for a half-maximal effect (EC50) in the series with HBV is < 1 µM. Moreover, the IC50 on HBV core protein was < 5 µM.

With `CCOCCN(C)C(=O)c1n[nH]c2c1CN(C(=O)c1cc3ccccc3[nH]1)CC2` [Example 255, N-(2-ethoxyethyl)-5-(1H-indole-2-carbonyl)-N-methyl-1H,4H,5H,6H,7H-pyrazolo[4,3-c]pyridine-3-carboxamide], in series [1], the CC50 at 6 days is > 10 µM. For the same compound, the concentration giving a half-maximal response (EC50) in the series with HBV is < 1 µM. In addition, the IC50 at HBV core protein was < 5 µM.

On to `CN(CC(O)C1CC1)C(=O)c1n[nH]c2c1CN(C(=O)c1cc3ccccc3[nH]1)CC2` (stereo not drawn) [Example 256, N-(2-cyclopropyl-2-hydroxyethyl)-5-(1H-indole-2-carbonyl)-N-methyl-1H,4H,5H,6H,7H-pyrazolo[4,3-c]pyridine-3-carboxamide], for which, in series [1], the CC50 at 6 days was > 10 µM. In the series on HBV, the half-maximal effective concentration (EC50) was < 1 µM. Besides, at HBV core protein, the IC50 is < 5 µM.

As to `COCC1(N(C)C(=O)c2n[nH]c3c2CN(C(=O)c2cc4c(Cl)cccc4[nH]2)CC3)CC1` [Example 262, 5-(4-chloro-1H-indole-2-carbonyl)-N-[1-(methoxymethyl)cyclopropyl]-N-methyl-1H,4H,5H,6H,7H-pyrazolo[4,3-c]pyridine-3-carboxamide], the 50% cytotoxic concentration (CC50) at 6 days in series [1] is > 10 µM. In the series on HBV, the concentration giving a half-maximal response (EC50) is < 1 µM. The IC50 on HBV core protein is < 5 µM.

`COCC1(N(C)C(=O)c2n[nH]c3c2CN(C(=O)c2cc4ccc(Cl)cc4[nH]2)CC3)CC1` [Example 263, 5-(6-chloro-1H-indole-2-carbonyl)-N-[1-(methoxymethyl)cyclopropyl]-N-methyl-1H,4H,5H,6H,7H-pyrazolo[4,3-c]pyridine-3-carboxamide]: the cytotoxic concentration (CC50) at 6 days in series [1] was > 10 µM. Also, the EC50 in the series on HBV is < 1 µM. The IC50 at HBV core protein was < 5 µM.

`COCC1(N(C)C(=O)c2n[nH]c3c2CN(C(=O)c2cc4c(Cl)cc(F)cc4[nH]2)CC3)CC1` [Example 264, 5-(4-chloro-6-fluoro-1H-indole-2-carbonyl)-N-[1-(methoxymethyl)cyclopropyl]-N-methyl-1H,4H,5H,6H,7H-pyrazolo[4,3-c]pyridine-3-carboxamide]: the cytotoxic concentration (CC50) at 6 days in series [1] is > 10 µM. In addition, in the series with HBV, the EC50 was < 1 µM. The half-maximal inhibitory concentration (IC50) at HBV core protein was < 5 µM.

`COCC1(N(C)C(=O)c2n[nH]c3c2CN(C(=O)c2cc4cc(F)c(Cl)cc4[nH]2)CC3)CC1` [Example 265, 5-(6-chloro-5-fluoro-1H-indole-2-carbonyl)-N-[1-(methoxymethyl)cyclopropyl]-N-methyl-1H,4H,5H,6H,7H-pyrazolo[4,3-c]pyridine-3-carboxamide]: in series [1], the CC50 at 6 days is > 10 µM. Further, in the series on HBV, the EC50 is < 1 µM. Further, the IC50 at HBV core protein is < 5 µM.

`COCC1(N(C)C(=O)c2n[nH]c3c2CN(C(=O)c2cc4c(F)cc(F)cc4[nH]2)CC3)CC1` [Example 266, 5-(4,6-difluoro-1H-indole-2-carbonyl)-N-[1-(methoxymethyl)cyclopropyl]-N-methyl-1H,4H,5H,6H,7H-pyrazolo[4,3-c]pyridine-3-carboxamide]: in series [1], the 50% cytotoxic concentration (CC50) at 6 days is > 10 µM. The EC50 in the series with HBV is < 1 µM. Also, at HBV core protein, the IC50 was < 5 µM.

`COCC1(N(C)C(=O)c2n[nH]c3c2CN(C(=O)c2cc4c(F)c(F)ccc4[nH]2)CC3)CC1` [Example 267, 5-(4,5-difluoro-1H-indole-2-carbonyl)-N-[1-(methoxymethyl)cyclopropyl]-N-methyl-1H,4H,5H,6H,7H-pyrazolo[4,3-c]pyridine-3-carboxamide]: the CC50 at 6 days in series [1] was > 10 µM. Further, in the series with HBV, the concentration giving a half-maximal response (EC50) is < 1 µM. The IC50 at HBV core protein was < 5 µM.

With `COCC1(N(C)C(=O)c2n[nH]c3c2CN(C(=O)c2cc4c(C)cc(F)cc4[nH]2)CC3)CC1` [Example 269, 5-(6-fluoro-4-methyl-1H-indole-2-carbonyl)-N-[1-(methoxymethyl)cyclopropyl]-N-methyl-1H,4H,5H,6H,7H-pyrazolo[4,3-c]pyridine-3-carboxamide], the 50% cytotoxic concentration (CC50) at 6 days in series [1] is > 10 µM. In addition, the 50% effective concentration (EC50) in the series with HBV was < 1 µM. Besides, on HBV core protein, the half-inhibitory concentration (IC50) was < 5 µM.

As for `CCc1cccc2[nH]c(C(=O)N3CCc4[nH]nc(C(=O)N(C)C5(COC)CC5)c4C3)cc12` [Example 270, 5-(4-ethyl-1H-indole-2-carbonyl)-N-[1-(methoxymethyl)cyclopropyl]-N-methyl-1H,4H,5H,6H,7H-pyrazolo[4,3-c]pyridine-3-carboxamide], the CC50 at 6 days in series [1] was > 10 µM. Also, the EC50 in the series on HBV is < 1 µM. The half-maximal inhibitory concentration (IC50) at HBV core protein was < 5 µM.

On to `CCc1cc(F)cc2[nH]c(C(=O)N3CCc4[nH]nc(C(=O)N(C)C5(CO)CC5)c4C3)cc12` [Example 271, 5-(4-ethyl-6-fluoro-1H-indole-2-carbonyl)-N-[1-(hydroxymethyl)cyclopropyl]-N-methyl-1H,4H,5H,6H,7H-pyrazolo[4,3-c]pyridine-3-carboxamide], for which the CC50 at 6 days in series [1] was > 10 µM. For the same compound, in the series on HBV, the EC50 was < 1 µM. Moreover, the concentration for half-maximal inhibition (IC50) at HBV core protein was < 5 µM.

Regarding `CCc1cc(F)cc2[nH]c(C(=O)N3CCc4[nH]nc(C(=O)N(C)C5(COC)CC5)c4C3)cc12` [Example 272, 5-(4-ethyl-6-fluoro-1H-indole-2-carbonyl)-N-[1-(methoxymethyl)cyclopropyl]-N-methyl-1H,4H,5H,6H,7H-pyrazolo[4,3-c]pyridine-3-carboxamide], the half-maximal cytotoxic concentration (CC50) at 6 days in series [1] is > 10 µM. In the series with HBV, the EC50 was < 1 µM. At HBV core protein, the IC50 was < 5 µM.

With `CCON=C(C)c1n[nH]c2c1CN(C(=O)c1cc3ccccc3[nH]1)CC2` [Example 273, ethoxy({1-[5-(1H-indole-2-carbonyl)-1H,4H,5H,6H,7H-pyrazolo[4,3-c]pyridin-3-yl]ethylidene})amine], the CC50 at 6 days in series [1] is > 10 µM. Further, in the series on HBV, the concentration for a half-maximal effect (EC50) fell in the range of 1 to 25 µM. For the same compound, the half-inhibitory concentration (IC50) at HBV core protein is < 100 µM.
